Measurements as given in US11155567B2, “Sting agonist compounds and methods of use” (Mersana Therapeutics, Inc., priority 2019, dated 2021).

Each compound was assayed against T1, Human STING (Homo sapiens, UniProt Q86WV6, G230A/H232R/R293Q/R71H) (assay: Activation of human STING signaling in permeabilized THP1 cells, IRF3 induction). Settings: THP1-Dual cells permeabilized with digitonin buffer 30 minutes on ice, then 24 h in RPMI media.
T1 construct: host or cells: THP1-Dual cells, digitonin-permeabilized
T1 sequence (Q86WV6 whole entry R71H/G230A/H232R/R293Q): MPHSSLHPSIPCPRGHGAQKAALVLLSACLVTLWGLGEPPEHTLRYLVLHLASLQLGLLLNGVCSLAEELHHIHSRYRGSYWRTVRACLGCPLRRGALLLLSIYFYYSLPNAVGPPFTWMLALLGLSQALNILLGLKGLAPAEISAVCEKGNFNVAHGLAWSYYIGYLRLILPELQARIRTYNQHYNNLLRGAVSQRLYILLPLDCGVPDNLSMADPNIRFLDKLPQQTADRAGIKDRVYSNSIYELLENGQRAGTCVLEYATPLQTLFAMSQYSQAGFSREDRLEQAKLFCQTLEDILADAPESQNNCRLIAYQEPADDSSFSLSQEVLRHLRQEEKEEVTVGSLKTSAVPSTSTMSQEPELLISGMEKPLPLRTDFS
Assay type: cell-based
Procedure: (§1) To evaluate IRF3 reporter levels, cell culture supernatant (20 μl) from each incubated sample was added to QUANTI-Luc™ assay solution (Invivogen, 50 μl), and the luminescence was measured with a SpectraMax M3 spectrophotometer (Molecular Devices).
4×10^5 THP1-Dual™ cells (NF-κB-SEAP and IRF-Lucia luciferase Reporter Monocytes, Invivogen) were incubated with test Compounds in a 5-fold titration steps from […] in permeabilized buffer (50 mM HEPES pH 7.0, 100 mM KCl, 3 mM MgCl2, 85 mM sucrose, 0.2% BSA, 1 mM ATP, 0.1 mM GTP, 0.1 mM TTP, 1 μg/ml digitonin) for 30 minutes on ice. Cells were then washed and incubated in a fresh RPMI media with 10% FBS at 37° C. with 5% CO2 for 24 h. Cell culture supernatants from each sample were collected and NFkB and IRF3 were evaluated as above. Table 3 provides the results for IRF3 induction (“A” means <1 μM; “B” means ≥1 μM and <50 μM; “C” means ≥50 μM).

| SMILES | EC50 [nM] |
| --- | --- |
| CCc1nc(C)oc1C(=O)Nc1nc2cc(C(N)=O)cnc2n1C/C=C/Cn1c(NC(=O)c2oc(C)nc2CC)nc2cc(C(N)=O)cc(OCCCO)c21 [compound 95] | < 1000 |
| CCn1nc(C)cc1C(=O)/N=c1\sc2cc(C(N)=O)cc(OC)c2n1C/C=C/Cn1c(NC(=O)c2cc(C)nn2CC)nc2cc(C(N)=O)cc(OCCCO)c21 [compound 65] | < 1000 |
| CCc1nc(C)oc1C(=O)/N=c1\sc2cc(C(N)=O)cc(OCCCO)c2n1C/C=C/Cn1c(NC(=O)c2oc(C)nc2CC)nc2cc(C(N)=O)cnc21 [compound 146] | < 1000 |
| CCc1nc(C)oc1C(=O)Nc1nc2cc(C(N)=O)cc(OC)c2n1C/C=C/Cn1c(NC(=O)c2cc(C)nn2CC)nc2cc(C(N)=O)cc(OCCCO)c21 [compound 43] | < 1000 |
| CCn1nc(C)cc1C(=O)Nc1nc2cc(C(N)=O)cnc2n1C/C=C/Cn1c(NC(=O)c2cc(C)nn2CC)nc2cc(C(N)=O)cnc21 [compound 84] | < 1000 |
| CCc1nc(C)sc1C(=O)Nc1nc2cc(C(N)=O)cc(OC)c2n1C/C=C/Cn1c(NC(=O)c2sc(C)nc2CC)nc2cc(C(N)=O)cc(OCCCC(=O)O)c21 [Compound 141] | 1000 to 50000 |
| CCn1nc(C)cc1C(=O)Nc1nc2cc(C(N)=O)cnc2n1C/C=C/Cn1c(NC(=O)c2cc(C)nn2CC)nc2cc(C(N)=O)cc(Br)c21 [compound 89] | < 1000 |
| CCc1nc(C)oc1C(=O)Nc1nc2cc(C(N)=O)cc(OC)c2n1C/C=C/Cn1c(NC(=O)c2oc(C)nc2CC)nc2cc(C(N)=O)cc(OCCCN)c21 [compound 18] | < 1000 |
| CCc1nc(C)oc1C(=O)Nc1nc2cc(C(N)=O)cnc2n1C/C=C/Cn1c(NC(=O)c2oc(C)nc2CC)nc2cc(C(N)=O)cc(OCCCC(=O)O)c21 [compound 97] | < 1000 |
| CCc1nc(C)oc1C(=O)Nc1nc2cc(C(N)=O)cc(OC)c2n1C/C=C/Cn1c(NC(=O)c2sc(C)nc2CC)nc2cc(C(N)=O)cc(OCCCC(=O)O)c21 [Compound 149] | < 1000 |
| CCc1nc(C)oc1C(=O)Nc1nc2cc(C(N)=O)cc(OC)c2n1C/C=C/Cn1c(NC(=O)c2oc(C)nc2CC)nc2cc(C(N)=O)cc(OCCCC(=O)O)c21 [compound 19] | < 1000 |
| CCn1nc(C)cc1C(=O)Nc1nc2cc(CNC(C)=O)cnc2n1C/C=C/Cn1c(NC(=O)c2cc(C)nn2CC)nc2cc(C(N)=O)cc(OC)c21 [Compound 137] | ≥ 50000 |
| NC(=O)c1ccc2c(c1)nc(NC(=O)c1cocn1)n2C/C=C/Cn1c(NC(=O)c2cocn2)nc2cc(C(N)=O)cc(OCCCO)c21 [compound 28] | ≥ 50000 |
| CCc1nc(C)oc1C(=O)/N=c1\sc2cc(C(N)=O)cc(OC)c2n1C/C=C/Cn1c(NC(=O)c2sc(C)nc2CC)nc2cc(C(N)=O)cc(OCCCO)c21 [compound 70] | ≥ 50000 |
| CCn1nc(C)cc1C(=O)/N=c1\sc2cc(C(N)=O)cnc2n1C/C=C/Cn1c(NC(=O)c2cc(C)nn2CC)nc2cc(C(N)=O)cc(OCCCC(=O)O)c21 [Compound 140] | < 1000 |
| CCn1nc(C)cc1C(=O)/N=c1\sc2cc(C(=O)OC)cc(OC)c2n1C/C=C/Cn1c(NC(=O)c2cc(C)nn2CC)nc2cc(C(N)=O)cc(OCCCO)c21 [Compound 115] | < 1000 |
| CCc1nc(C)sc1C(=O)Nc1nc2cc(C(N)=O)cc(OCCCO)c2n1C/C=C/Cn1c(NC(=O)c2cc(C)nn2CC)nc2cc(C(N)=O)cc(OC)c21 [compound 38] | < 1000 |

These compounds were tested against T2, R232 hSTING variant (Homo sapiens, UniProt Q86WV6, H232R) (assay: IRF3 reporter induction in THP1-Dual KI-hSTING-R232 Cells). Settings: THP1-Dual KI-hSTING-R232 Cells (R232 Haplotype).
T2 construct: expressed in transfected cells; host or cells: THP1-Dual KI-hSTING-R232 cells, generated from THP1-Dual KO-STING cells
T2 sequence (Q86WV6 whole entry H232R): as the sequence (Q86WV6 whole entry R71H/G230A/H232R/R293Q) above, with H71R, A230G, Q293R counted along it
Assay type: cell-based
Procedure: (§2) THP1-Dual™ Human Monocytes cells with the homozygous HAQ allele, known to be a natural variant allele of STING occurring in 20% of the human population (Invivogen) have been engineered with two independent gene reporter systems: a secreted embryonic alkaline phosphatase (SEAP) reporter gene for NFkB activity, and secreted luciferase reporter for […] (IRF3) activity were used. 4×10^5 THP1-Dual™ cells were incubated with test Compounds in a 5-fold titration steps from 1 to 0.0128 μM in RPMI media with 10% FBS, for 24 hours at 37° C. with 5% CO2. Cell culture supernatants (20 μl) from each incubated sample was added to resuspended QUANTI-Blue™ Solution (Invivogen, 180 μl) in each well of a flat-bottom 96-well plate, then incubated for 2 h. NFkB levels were evaluated using a spectrophotometer at 620-655 nm.
as §1
(§3) NFkB and IRF3 reporter levels were also determined for THP1-Dual™ KI-hSTING-H232 Cells and THP1-Dual™ KI-hSTING-R232 Cells. THP1-Dual™ KI-hSTING-H232 Cells (R232H Haplotype) were generated from THP1-Dual™ KO-STING cells by knockin of the intronless coding sequence (from the ATG to TGA) of the R232H human STING variant (Invivogen). R232H has been identified as a natural variant allele of STING occurring in ˜14% of the human population. THP1-Dual™ KI-hSTING-R232 Cells (R232 Haplotype) were generated from THP1-Dual™ KO-STING cells by knockin of the intronless coding sequence (from the ATG to the TGA) of the R232 hSTING variant. Genomic studies indicate that this variant, which contains an arginine at position 232 (R232), is the most prevalent variant with an occurrence (homozygous allele) of ˜45-58% in the human population.
(§4) The EC50 value was determined from the dose response curve based on reference Compounds. Table 2a provides the results for IRF3 reporter induction THP1-Dual™ Human Monocytes cells and Table 2b provides the results for IRF3 reporter induction in THP1-Dual™ KI-hSTING-H232 Cells and THP1-Dual™ KI-hSTING-R232 Cells (“A” means <30 nM; “B” means ≥30 nM and <100 nM; “C” means ≥100 nM).

| SMILES | EC50 [nM] |
| --- | --- |
| CCc1nc(C)oc1C(=O)Nc1nc2cc(C(N)=O)cnc2n1C/C=C/Cn1c(NC(=O)c2oc(C)nc2CC)nc2cc(C(N)=O)cc(OCCCO)c21 [compound 95] | < 30 |
| CCc1nc(C)oc1C(=O)/N=c1\sc2cc(C(N)=O)cc(OCCCO)c2n1C/C=C/Cn1c(NC(=O)c2oc(C)nc2CC)nc2cc(C(N)=O)cnc21 [compound 146] | < 30 |

Each compound was assayed against T3, R232H human STING variant (Homo sapiens, UniProt Q86WV6) (assay: IRF3 reporter induction in THP1-Dual KI-hSTING-H232 Cells). Settings: THP1-Dual KI-hSTING-H232 Cells (R232H Haplotype).
T3 construct: host or cells: THP1-Dual KI-hSTING-H232 cells, generated from THP1-Dual KO-STING cells
T3 sequence (Q86WV6 whole entry, stated change not applied): as the sequence (Q86WV6 whole entry R71H/G230A/H232R/R293Q) above, with H71R, A230G, R232H, Q293R counted along it
Assay type: cell-based
Procedure: as §2, §1, §3, §4

| SMILES | EC50 [nM] |
| --- | --- |
| CCc1nc(C)oc1C(=O)Nc1nc2cc(C(N)=O)cnc2n1C/C=C/Cn1c(NC(=O)c2oc(C)nc2CC)nc2cc(C(N)=O)cc(OCCCO)c21 [compound 95] | < 30 |
| CCc1nc(C)oc1C(=O)/N=c1\sc2cc(C(N)=O)cc(OCCCO)c2n1C/C=C/Cn1c(NC(=O)c2oc(C)nc2CC)nc2cc(C(N)=O)cnc21 [compound 146] | < 30 |

The compounds below were run against T4, Human STING (HAQ allele) (Homo sapiens, UniProt Q86WV6, G230A/H232R/R293Q/R71H) (assay: IRF3 reporter induction in THP1-Dual Human Monocytes cells (homozygous HAQ STING allele)). Settings: IRF3 reporter (secreted luciferase), 24 hours incubation.
T4 construct: THP1-Dual™ Human Monocytes cells with the homozygous HAQ allele; host or cells: THP1-Dual human monocytes
T4 sequence (Q86WV6 whole entry R71H/G230A/H232R/R293Q): as the sequence (Q86WV6 whole entry R71H/G230A/H232R/R293Q) above
Assay type: cell-based
Procedure: as §2, §1, §4

| SMILES | EC50 [nM] |
| --- | --- |
| CCc1nc(C)oc1C(=O)Nc1nc2cc(C(N)=O)cnc2n1C/C=C/Cn1c(NC(=O)c2oc(C)nc2CC)nc2cc(C(N)=O)cc(OCCCO)c21 [compound 95] | 30 to 100 |
| CCn1nc(C)cc1C(=O)/N=c1\sc2cc(C(N)=O)cc(OC)c2n1C/C=C/Cn1c(NC(=O)c2cc(C)nn2CC)nc2cc(C(N)=O)cc(OCCCO)c21 [compound 65] | < 30 |
| CCc1nc(C)oc1C(=O)/N=c1\sc2cc(C(N)=O)cc(OCCCO)c2n1C/C=C/Cn1c(NC(=O)c2oc(C)nc2CC)nc2cc(C(N)=O)cnc21 [compound 146] | ≥ 100 |
| CCc1nc(C)oc1C(=O)Nc1nc2cc(C(N)=O)cc(OC)c2n1C/C=C/Cn1c(NC(=O)c2cc(C)nn2CC)nc2cc(C(N)=O)cc(OCCCO)c21 [compound 43] | < 30 |
| CCc1nc(C)oc1C(=O)Nc1nc2cc(C(N)=O)cc(OC)c2n1C/C=C/Cn1c(NC(=O)c2oc(C)nc2CC)nc2cc(C(N)=O)cc(OCCCN)c21 [compound 18] | 30 to 100 |
| CCc1nc(C)oc1C(=O)Nc1nc2cc(C(N)=O)cnc2n1C/C=C/Cn1c(NC(=O)c2oc(C)nc2CC)nc2cc(C(N)=O)cc(OCCCC(=O)O)c21 [compound 97] | ≥ 100 |
